Values of other authors, collected in patent EP4257117A1, “SUSTAINED-RELEASE PHARMACEUTICAL COMPOSITION OF FULVESTRANT AND METHOD FOR PREPARING SAME” (Samyang Holdings Corporation, priority 2020, dated 2022).
Read-outs that look alike come from different tables or passages of the source.

What was measured:
[1] = according to the prescription of Faslodex Injection
[2] = in pure water, according to FDA data

## C[C@]12CC[C@@H]3c4ccc(O)cc4C[C@@H](CCCCCCCCC[S+]([O-])CCCC(F)(F)C(F)(F)F)[C@H]3[C@@H]1CC[C@@H]2O (stereo partly drawn) [Fulvestrant, 7-alpha-[9-(4,4,5,5,5-pentafluoropentylsulphinyl)nonyl]estra-1,3,5-(10)-triene-3,17beta-diol]
[1]; at room temperature
  saturation solubility of Fulvestrant: about 90 mg/mL
[1]; in refrigerated storage
  saturation solubility of Fulvestrant: about 65 mg/mL
[2]
  solubility in aqueous solution: practically insoluble
